Measured values taken from article PMC6409085, “Three odorant-binding proteins are involved in the behavioral response of Sogatella furcifera to rice plant volatiles” (PeerJ, 2019).
Where “and” joins values, the source holds several entries; their conditions need not be identical. Equal values may be shown once. Read-outs that look alike come from different tables or passages of the source. Blank lines part the entries; values can stand above or below the compound they belong to.

Tests used:
Assay in all cases: biochemical
Format in all cases: binding
[1] = biological target: SfurOBP1 (Sogatella furcifera, UniProt V5T8N5); details: for Fluorescence competitive binding assay, fluorescence intensity: OBP1, three replicate columns
Protocol: (§1) Thirty-six rice odorants ([He et al., 2014]; [Wang et al., 2017]) and 1-N-phenyl-naphthylamine (1-NPN) were purchased from Sigma-Aldrich (St Louis, MO, USA). These odorants and 1-NPN were dissolved in high-performance liquid chromatography (HPLC) purify grade methanol for 1.0 mM as work solution.
(§2) Fluorescence competitive binding assays were performed on Tecan Spark 10M (Tecan Group Ltd., Männedorf, Switzerland) with the F96 Black ELIAS Plate (Sangon) ([Khuhro et al., 2017]; [Liu et al., 2017]). The solutions were excited at 337 nm and emission spectra were recorded between 390 and 490 nm. First, to test the binding constants of 1-NPN to the SfurOBPs, a 2.0 µM solution of protein in 50 mM Tris-HCl (pH = 7.4) was titrated with 1 mM 1-NPN to achieve virous concentrations. Next, the competitive binding of each odorant was measured using the 1-NPN as fluorescent reporter and odorant as competitor. The concentrations of protein and 1-NPN were both 2.0 µM, the odorant added after protein and 1-NPN added into the well of ELIAS Plate for 2 min. The final concentrations of each competitor were 2, 4, 6, 8, 10, 12, 14, 16, 18 and 20 µM. After 2 min of odorant added, the fluorescence intensity was measured and recorded. The volume of mixed solution in each well was maintained at 250 µL. Each interaction was performed in triplicates.
(§3) GraphPad Prism 7.0 software (GraphPad Software, Inc., La Jolla, CA, USA) was used to calculated and generated the binding constants (K1−NPN) of 1-NPN to SfurOBPs and relative Scatchard plots ([Ban et al., 2003]; [Li et al., 2016]). Dissociation constant (Ki) of each odorant to SfurOBP was computed from the corresponding IC50 value (the half maximal inhibitory concentration), using the following equation: Ki=[IC50]/(1 + [1-NPN]/K1−NPN), where [1-NPN] is the free concentration of 1-NPN and K1−NPN is the dissociation constant of the complex protein/1-NPN.

[2] = biological target: SfurOBP3 (Sogatella furcifera, UniProt V5T818); details: for Fluorescence competitive binding assay, fluorescence intensity: OBP3, three replicate columns
Protocol: as §1, §2, §3

[3] = biological target: SfurOBP2 (Sogatella furcifera, UniProt V5T759)
Protocol: as §1, §2, §3

[4] = biological target: SfurOBP11 (Sogatella furcifera, UniProt V5T6E3)
Protocol: as §1, §2, §3

[5] = SfurOBP1, protein and 1-NPN both 2.0 µM, competitor 2-20 µM, read-out: IC50
[6] = SfurOBP3, protein and 1-NPN both 2.0 µM, competitor 2-20 µM, read-out: IC50
[7] = SfurOBP2, protein and 1-NPN both 2.0 µM, competitor 2-20 µM, read-out: IC50
[8] = SfurOBP11, protein and 1-NPN both 2.0 µM, competitor 2-20 µM, read-out: IC50

SfurOBP11, sequence (V5T6E3 entry or part of it): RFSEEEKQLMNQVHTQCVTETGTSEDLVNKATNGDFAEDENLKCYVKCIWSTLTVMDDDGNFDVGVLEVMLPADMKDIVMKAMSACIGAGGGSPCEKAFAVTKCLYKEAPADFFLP
SfurOBP3, sequence (V5T818 entry or part of it): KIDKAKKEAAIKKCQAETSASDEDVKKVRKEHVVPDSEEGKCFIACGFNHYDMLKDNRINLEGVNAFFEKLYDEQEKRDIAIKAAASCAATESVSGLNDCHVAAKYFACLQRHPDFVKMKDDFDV
SfurOBP1, sequence (V5T8N5 entry or part of it): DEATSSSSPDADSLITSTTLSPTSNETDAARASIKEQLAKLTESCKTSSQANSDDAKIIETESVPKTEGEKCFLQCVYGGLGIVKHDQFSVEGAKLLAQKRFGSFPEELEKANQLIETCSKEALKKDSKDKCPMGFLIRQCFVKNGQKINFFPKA
SfurOBP2, sequence (V5T759 entry or part of it): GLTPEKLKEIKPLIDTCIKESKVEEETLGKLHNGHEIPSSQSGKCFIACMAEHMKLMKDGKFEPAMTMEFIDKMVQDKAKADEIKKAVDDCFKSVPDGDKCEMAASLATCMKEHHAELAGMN

Structure (SMILES): C[C@@H]1CC[C@H]2C(C)(C)[C@H]3C[C@@]12CC[C@@]3(C)O [cedrol]
IC50 [1]: > 20 µM | Fluorescence competitive binding assay, fluorescence intensity ([1]; ligand concentration 2 (μM)): 6995 and 7876 and 8408 | Fluorescence competitive binding assay, fluorescence intensity ([1]; ligand concentration 4 (μM)): 8498 and 11154 and 11504 | Fluorescence competitive binding assay, fluorescence intensity ([1]; ligand concentration 6 (μM)): 10601 and 9220 and 11976 | Fluorescence competitive binding assay, fluorescence intensity ([1]; ligand concentration 8 (μM)): 9019 and 11150 and 9994 | Fluorescence competitive binding assay, fluorescence intensity ([1]; ligand concentration 10 (μM)): 10329 and 10734 and 11532 | Fluorescence competitive binding assay, fluorescence intensity ([1]; ligand concentration 12 (μM)): 12388 and 11952 and 13123 | Fluorescence competitive binding assay, fluorescence intensity ([1]; ligand concentration 14 (μM)): 12489 and 14285 and 14049 | Fluorescence competitive binding assay, fluorescence intensity ([1]; ligand concentration 16 (μM)): 13812 and 12078 and 13153 | Fluorescence competitive binding assay, fluorescence intensity ([1]; ligand concentration 18 (μM)): 15290 and 17034 and 15790 | Fluorescence competitive binding assay, fluorescence intensity ([1]; ligand concentration 20 (μM)): 14831 and 15054 and 15511 | IC50 [2]: > 20 µM | Fluorescence competitive binding assay, fluorescence intensity ([2]; ligand concentration 2): 55754 and 49842 and 56462 | Fluorescence competitive binding assay, fluorescence intensity ([2]; ligand concentration 4): 68851 and 68657 and 83563 | Fluorescence competitive binding assay, fluorescence intensity ([2]; ligand concentration 6): 77285 and 86181 and 100023 | Fluorescence competitive binding assay, fluorescence intensity ([2]; ligand concentration 8): 86444 and 86480 and 86528 | Fluorescence competitive binding assay, fluorescence intensity ([2]; ligand concentration 10): 98647 and 101699 and 124352 | Fluorescence competitive binding assay, fluorescence intensity ([2]; ligand concentration 12): 107439 and 105795 and 90567 | Fluorescence competitive binding assay, fluorescence intensity ([2]; ligand concentration 14): 124768 and 101594 and 116276 | Fluorescence competitive binding assay, fluorescence intensity ([2]; ligand concentration 16): 81951 and 95706 and 104699 | Fluorescence competitive binding assay, fluorescence intensity ([2]; ligand concentration 18): 130597 and 114825 and 98253 | Fluorescence competitive binding assay, fluorescence intensity ([2]; ligand concentration 20): 111183 and 106493 and 98789 | IC50 [3]: > 20 µM | Fluorescence competitive binding assay, OBP2 (raw fluorescence reading) ([3]; ligand concentration 2 (unit not given), replicate column 1 of 3): 24497 | Fluorescence competitive binding assay, OBP2 (raw fluorescence reading) ([3]; ligand concentration 2 (unit not given), replicate column 2 of 3): 23498 | Fluorescence competitive binding assay, OBP2 (raw fluorescence reading) ([3]; ligand concentration 2 (unit not given), replicate column 3 of 3): 23591 | Fluorescence competitive binding assay, OBP2 (raw fluorescence reading) ([3]; ligand concentration 4 (unit not given), replicate column 1 of 3): 27085 | Fluorescence competitive binding assay, OBP2 (raw fluorescence reading) ([3]; ligand concentration 4 (unit not given), replicate column 2 of 3): 27496 | Fluorescence competitive binding assay, OBP2 (raw fluorescence reading) ([3]; ligand concentration 4 (unit not given), replicate column 3 of 3): 25040 | Fluorescence competitive binding assay, OBP2 (raw fluorescence reading) ([3]; ligand concentration 6 (unit not given), replicate column 1 of 3): 30107 | Fluorescence competitive binding assay, OBP2 (raw fluorescence reading) ([3]; ligand concentration 6 (unit not given), replicate column 2 of 3): 26969 | Fluorescence competitive binding assay, OBP2 (raw fluorescence reading) ([3]; ligand concentration 6 (unit not given), replicate column 3 of 3): 25579 | Fluorescence competitive binding assay, OBP2 (raw fluorescence reading) ([3]; ligand concentration 8 (unit not given), replicate column 1 of 3): 26802 | Fluorescence competitive binding assay, OBP2 (raw fluorescence reading) ([3]; ligand concentration 8 (unit not given), replicate column 2 of 3): 26446 | Fluorescence competitive binding assay, OBP2 (raw fluorescence reading) ([3]; ligand concentration 8 (unit not given), replicate column 3 of 3): 25979 | Fluorescence competitive binding assay, OBP2 (raw fluorescence reading) ([3]; ligand concentration 10 (unit not given), replicate column 1 of 3): 26972 | Fluorescence competitive binding assay, OBP2 (raw fluorescence reading) ([3]; ligand concentration 10 (unit not given), replicate column 2 of 3): 25158 | Fluorescence competitive binding assay, OBP2 (raw fluorescence reading) ([3]; ligand concentration 10 (unit not given), replicate column 3 of 3): 26522 | Fluorescence competitive binding assay, OBP2 (raw fluorescence reading) ([3]; ligand concentration 12 (unit not given), replicate column 1 of 3): 24638 | Fluorescence competitive binding assay, OBP2 (raw fluorescence reading) ([3]; ligand concentration 12 (unit not given), replicate column 2 of 3): 24959 | Fluorescence competitive binding assay, OBP2 (raw fluorescence reading) ([3]; ligand concentration 12 (unit not given), replicate column 3 of 3): 25011 | Fluorescence competitive binding assay, OBP2 (raw fluorescence reading) ([3]; ligand concentration 14 (unit not given), replicate column 1 of 3): 25754 | Fluorescence competitive binding assay, OBP2 (raw fluorescence reading) ([3]; ligand concentration 14 (unit not given), replicate column 2 of 3): 26325 | Fluorescence competitive binding assay, OBP2 (raw fluorescence reading) ([3]; ligand concentration 14 (unit not given), replicate column 3 of 3): 24806 | Fluorescence competitive binding assay, OBP2 (raw fluorescence reading) ([3]; ligand concentration 16 (unit not given), replicate column 1 of 3): 22837 | Fluorescence competitive binding assay, OBP2 (raw fluorescence reading) ([3]; ligand concentration 16 (unit not given), replicate column 2 of 3): 21773 | Fluorescence competitive binding assay, OBP2 (raw fluorescence reading) ([3]; ligand concentration 16 (unit not given), replicate column 3 of 3): 21108 | Fluorescence competitive binding assay, OBP2 (raw fluorescence reading) ([3]; ligand concentration 18 (unit not given), replicate column 1 of 3): 27379 | Fluorescence competitive binding assay, OBP2 (raw fluorescence reading) ([3]; ligand concentration 18 (unit not given), replicate column 2 of 3): 25169 | Fluorescence competitive binding assay, OBP2 (raw fluorescence reading) ([3]; ligand concentration 18 (unit not given), replicate column 3 of 3): 23516 | Fluorescence competitive binding assay, OBP2 (raw fluorescence reading) ([3]; ligand concentration 20 (unit not given), replicate column 1 of 3): 25091 | Fluorescence competitive binding assay, OBP2 (raw fluorescence reading) ([3]; ligand concentration 20 (unit not given), replicate column 2 of 3): 24420 | Fluorescence competitive binding assay, OBP2 (raw fluorescence reading) ([3]; ligand concentration 20 (unit not given), replicate column 3 of 3): 23245 | IC50 [4]: > 20 µM | Fluorescence intensity, fluorescence competitive binding assay, OBP11 ([4]; ligand concentration 2, replicate 1): 32664 | Fluorescence intensity, fluorescence competitive binding assay, OBP11 ([4]; ligand concentration 2, replicate 2): 32061 | Fluorescence intensity, fluorescence competitive binding assay, OBP11 ([4]; ligand concentration 2, replicate 3): 32191 | Fluorescence intensity, fluorescence competitive binding assay, OBP11 ([4]; ligand concentration 4, replicate 1): 30812 | Fluorescence intensity, fluorescence competitive binding assay, OBP11 ([4]; ligand concentration 4, replicate 2): 37566 | Fluorescence intensity, fluorescence competitive binding assay, OBP11 ([4]; ligand concentration 4, replicate 3): 35078 | Fluorescence intensity, fluorescence competitive binding assay, OBP11 ([4]; ligand concentration 6, replicate 1): 34551 | Fluorescence intensity, fluorescence competitive binding assay, OBP11 ([4]; ligand concentration 6, replicate 2): 34452 | Fluorescence intensity, fluorescence competitive binding assay, OBP11 ([4]; ligand concentration 6, replicate 3): 36785 | Fluorescence intensity, fluorescence competitive binding assay, OBP11 ([4]; ligand concentration 8, replicate 1): 32906 | Fluorescence intensity, fluorescence competitive binding assay, OBP11 ([4]; ligand concentration 8, replicate 2): 35488 | Fluorescence intensity, fluorescence competitive binding assay, OBP11 ([4]; ligand concentration 8, replicate 3): 34811 | Fluorescence intensity, fluorescence competitive binding assay, OBP11 ([4]; ligand concentration 10, replicate 1): 34631 | Fluorescence intensity, fluorescence competitive binding assay, OBP11 ([4]; ligand concentration 10, replicate 2): 35572 | Fluorescence intensity, fluorescence competitive binding assay, OBP11 ([4]; ligand concentration 10, replicate 3): 36351 | Fluorescence intensity, fluorescence competitive binding assay, OBP11 ([4]; ligand concentration 12, replicate 1): 32777 | Fluorescence intensity, fluorescence competitive binding assay, OBP11 ([4]; ligand concentration 12, replicate 2): 37222 | Fluorescence intensity, fluorescence competitive binding assay, OBP11 ([4]; ligand concentration 12, replicate 3): 35927 | Fluorescence intensity, fluorescence competitive binding assay, OBP11 ([4]; ligand concentration 14, replicate 1): 33134 | Fluorescence intensity, fluorescence competitive binding assay, OBP11 ([4]; ligand concentration 14, replicate 2): 35392 | Fluorescence intensity, fluorescence competitive binding assay, OBP11 ([4]; ligand concentration 14, replicate 3): 35226 | Fluorescence intensity, fluorescence competitive binding assay, OBP11 ([4]; ligand concentration 16, replicate 1): 32933 | Fluorescence intensity, fluorescence competitive binding assay, OBP11 ([4]; ligand concentration 16, replicate 2): 34203 | Fluorescence intensity, fluorescence competitive binding assay, OBP11 ([4]; ligand concentration 16, replicate 3): 33568 | Fluorescence intensity, fluorescence competitive binding assay, OBP11 ([4]; ligand concentration 18, replicate 1): 37284 | Fluorescence intensity, fluorescence competitive binding assay, OBP11 ([4]; ligand concentration 18, replicate 2): 38034 | Fluorescence intensity, fluorescence competitive binding assay, OBP11 ([4]; ligand concentration 18, replicate 3): 36646 | Fluorescence intensity, fluorescence competitive binding assay, OBP11 ([4]; ligand concentration 20, replicate 1): 39273 | Fluorescence intensity, fluorescence competitive binding assay, OBP11 ([4]; ligand concentration 20, replicate 2): 38740 | Fluorescence intensity, fluorescence competitive binding assay, OBP11 ([4]; ligand concentration 20, replicate 3): 33015

IC50 [1, 5]: > 20 µM | IC50 [2, 6]: > 20 µM | IC50 [3, 7]: > 20 µM | IC50 [4, 8]: > 20 µM
Structure (SMILES): CC(C)COC(=O)CCCCC(=O)OCC(C)C [diisobutyl adipate]

IC50 [1, 5]: > 20 µM | IC50 [2, 6]: > 20 µM | IC50 [3, 7]: > 20 µM | IC50 [4, 8]: > 20 µM
Structure (SMILES): CCCCCCCCCCCCCCCC(=O)OC [methyl hexadecanoate]
